# According to patent USRE47689E1, “Compounds for treating spinal muscular atrophy” (PTC Therapeutics, Inc., priority 2011, dated 2019):
# Legend:
# [1] = test system: SMN2 minigene (full length SMN2 minigene mRNA containing SMN2 exon 7); experiment: SMN2 minigene mRNA splicing RT-qPCR assay in cultured cells; format: cell-based, human; details: Homo sapiens, HEK293-H; HEK293H cells stably transfected with SMN2-A minigene; 24 hours; 7-point concentration curve; 1.5-fold relative to vehicle-treated cells; read-out: EC1.5x for production of full length SMN2 mRNA
# Outline: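 Read-out: full-length (exon 7-included) SMN2 minigene mRNA by multiplex RT-qPCR with GAPDH, efficiency-corrected (1+E)^−Ct, GAPDH-normalized and divided by vehicle. Stably transfected HEK293H cells, 24 h compound exposure, duplicates per concentration. Value is EC1.5x, reported as star ranges.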
# Smn protein = Smn protein assay in cultured cells (SMN HTRF); format: cell-based, human; details: 48 hours; for maximum fold (Fold) increase of Smn protein: SMA patient fibroblast cells, 7-point concentration data, fold increase relative to vehicle control (SMN HTRF); for EC1.5x (concentration giving 1.5-fold Smn protein increase): SMA Type 1 patient fibroblast cells (GM03813), 7-point concentration curve, SMN HTRF, concentration producing 1.5 times Smn protein vs DMSO vehicle control, read-out: EC1.5x for Smn protein expression
# Outline: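 Lysates in RIPA with protease inhibitors are incubated overnight at room temperature with HTRF anti-SMN antibodies. EC1.5x is derived from fold increase in ΔF over vehicle.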
SMILES,melting point,EC (1.5-fold) [1] [µM],maximum fold (Fold) increase of Smn protein (Smn protein),EC1.5x (concentration giving 1.5-fold Smn protein increase) (Smn protein) [nM]
"Cc1cn2cc(-c3cc4c(F)cc(N5CCN(C)CC5)cc4oc3=O)nc2cn1 [Compound 592, 5-fluoro-3-(6-methylimidazo[1,2-a]pyrazin-2-yl)-7-(4-methylpiperazin-1-yl)-2H-chromen-2-one]",283 to 284 °C,< 0.1,***** (fold increase >1.65),< 300
"COc1cccc(-c2cc3ccc(N4CCNCC4)cc3oc2=O)n1 [Cpd 218, 3-(6-methoxypyridin-2-yl)-7-(piperazin-1-yl)-2H-chromen-2-one]",162 to 165 °C,0.3 to 1,** (fold increase between >1.2 and ≤1.35),
"Cc1cn2cc(-c3cc4ccc(N5CCCN(C)CC5)cc4oc3=O)cnc2n1 [Compound 662, 7-(4-methyl-1,4-diazepan-1-yl)-3-(2-methylimidazo[1,2-a]pyrimidin-6-yl)-2H-chromen-2-one]",286 to 289 °C,< 0.1,*** (fold increase between >1.35 and ≤1.5),1000 to 3000
"COc1cc(OC)cc(-c2cc3ccc(N4CCN[C@@H](C)C4)cc3oc2=O)c1 [Compound 413, 3-(3,5-dimethoxyphenyl)-7-[(3S)-3-methylpiperazin-1-yl]-2H-chromen-2-one]",149 to 151 °C,1 to 3,* (maximum fold increase of ≤1.2),
"O=c1oc2cc(N3CCNCC3)cc(F)c2cc1-c1cn2cccnc2n1 [Compound 312, 5-fluoro-3-(imidazo[1,2-a]pyrimidin-2-yl)-7-(piperazin-1-yl)-2H-chromen-2-one]",298 to 302 °C,0.3 to 1,** (fold increase between >1.2 and ≤1.35),
"C[C@@H]1CN(c2ccc3cc(-c4cn5ccsc5n4)c(=O)oc3c2)CCN1 [Compound 204, 3-(imidazo[2,1-b][1,3]thiazol-6-yl)-7-[(3R)-3-methylpiperazin-1-yl]-2H-chromen-2-one]",233 to 237 °C,0.1 to 0.3,*** (fold increase between >1.35 and ≤1.5),
"Cc1ccn2cc(-c3cc4ccc(N[C@@H]5CCNC5)cc4oc3=O)nc2c1 [Compound 496, 3-(7-methylimidazo[1,2-a]pyridin-2-yl)-7-[(3R)-pyrrolidin-3-ylamino]-2H-chromen-2-one]",244 to 254 °C,0.3 to 1,* (maximum fold increase of ≤1.2),
"O=c1oc2cc(N3CCNCC3)ccc2cc1-c1ccc(F)c(Cl)c1 [Compound 484, 3-(3-chloro-4-fluorophenyl)-7-(piperazin-1-yl)-2H-chromen-2-one]",186 to 188 °C,0.3 to 1,* (maximum fold increase of ≤1.2),

# More lines, main results first:
melting point,SMILES,EC (1.5-fold) [1] [µM],maximum fold (Fold) increase of Smn protein (Smn protein),EC1.5x (concentration giving 1.5-fold Smn protein increase) (Smn protein) [nM]
227 to 230 °C,"Cc1ccc2nc(-c3cc4ccc(CN5CCC(O)C5)cc4oc3=O)cn2c1 (stereo not drawn) [Compound 253, 7-[(3-hydroxypyrrolidin-1-yl)methyl]-3-(6-methylimidazo[1,2-a]pyridin-2-yl)-2H-chromen-2-one]",1 to 3,* (maximum fold increase of ≤1.2),
180 to 184 °C,"Cc1cn2cc(-c3cc4ccc(CCN5CCOCC5)cc4oc3=O)nc2c(C)n1 [Compound 886, 3-(6,8-dimethylimidazo[1,2-a]pyrazin-2-yl)-7-[2-(morpholin-4-yl)ethyl]-2H-chromen-2-one]",0.3 to 1,***** (fold increase >1.65),300 to 1000
265 to 268 °C,"Cc1nc(Cl)cn2cc(-c3cc4ccc(N5CCN[C@H](C)C5)cc4oc3=O)nc12 [Compound 699, 3-(6-chloro-8-methylimidazo[1,2-a]pyrazin-2-yl)-7-[(3R)-3-methylpiperazin-1-yl]-2H-chromen-2-one]",0.1 to 0.3,***** (fold increase >1.65),300 to 1000
172 to 174 °C,"Cc1cn2cc(-c3cc4ccc(OC[C@H]5CCCN5)cc4oc3=O)nc2c(C)n1 [Cpd 948, 3-(6,8-dimethylimidazo[1,2-a]pyrazin-2-yl)-7-[(2R)-pyrrolidin-2-ylmethoxy]-2H-chromen-2-one]",< 0.1,*** (fold increase between >1.35 and ≤1.5),
231 to 233 °C,"Cc1cn2cc(-c3cc4ccc(N5CCN(CCO)CC5)cc4oc3=O)nc2c(C)n1 [Compound 654, 3-(6,8-dimethylimidazo[1,2-a]pyrazin-2-yl)-7-[4-(2-hydroxyethyl)piperazin-1-yl]-2H-chromen-2-one]",< 0.1,**** (fold increase between >1.5 and ≤1.65),< 300
238 °C,"Cc1cc(Cl)cn2cc(-c3cc4ccc(N5CCN(C)CC5)cc4oc3=O)nc12 [Compound 264, 3-(6-chloro-8-methylimidazo[1,2-a]pyridin-2-yl)-7-(4-methylpiperazin-1-yl)-2H-chromen-2-one]",1 to 3,* (maximum fold increase of ≤1.2),
267 °C (dec.),"Cc1ccc2nc(-c3cc4ccc(N5CCN(C)CC5)cc4oc3=O)cn2c1 [Compound 81, 3-(6-methylimidazo[1,2-a]pyridin-2-yl)-7-(4-methylpiperazin-1-yl)-2H-chromen-2-one]",0.3 to 1,*** (fold increase between >1.35 and ≤1.5),3000 to 10000
200 to 205 °C,"Cc1cn2cc(-c3cc4ccc(C5CCN(C6CCC6)CC5)cc4oc3=O)nc2c(C)n1 [Compound 821, 7-(1-cyclobutylpiperidin-4-yl)-3-(6,8-dimethylimidazo[1,2-a]pyrazin-2-yl)-2H-chromen-2-one]",< 0.1,***** (fold increase >1.65),< 300
189 to 195 °C,"Cc1cn2cc(-c3cc4ccc(CN5CCNCC5)cc4oc3=O)nc2c(C)n1 [Compound 848, 3-(6,8-dimethylimidazo[1,2-a]pyrazin-2-yl)-7-(piperazin-1-ylmethyl)-2H-chromen-2-one]",< 0.1,***** (fold increase >1.65),300 to 1000
188 to 191 °C,"CCc1cn2cc(-c3cc4ccc(N5CCCN(C)CC5)cc4oc3=O)nc2s1 [Compound 431, 3-(2-ethylimidazo[2,1-b][1,3]thiazol-6-yl)-7-(4-methyl-1,4-diazepan-1-yl)-2H-chromen-2-one]",1 to 3,* (maximum fold increase of ≤1.2),
191 to 198 °C,"Cc1cn2cc(-c3cc4ccc(C5CCN(CC(C)C)CC5)cc4oc3=O)nc2c(C)n1 [Compound 914, 3-(6,8-dimethylimidazo[1,2-a]pyrazin-2-yl)-7-[1-(2-methylpropyl)piperidin-4-yl]-2H-chromen-2-one]",< 0.1,**** (fold increase between >1.5 and ≤1.65),< 300
